Source: ChEMBL document CHEMBL3867474, “Discovery of novel pyrrolidineoxy-substituted heteroaromatics as potent and selective PI3K delta inhibitors with improved physicochemical properties” (Bioorg Med Chem Lett, 2016)
≈ marks a conversion by molar mass, not a printed value.

Tests used:
[1] = Solubility of the compound at pH 6.8 by high-throughput equilibrium analysis; assay type: physicochemical; settings: buffer
[2] = target: T1, Phosphatidylinositol 4,5-bisphosphate 3-kinase catalytic subunit alpha isoform (Homo sapiens, UniProt P42336); test: Inhibition of PI3K-alpha (unknown origin) by KinaseGlo assay
[3] = target: T2, Phosphatidylinositol 4,5-bisphosphate 3-kinase catalytic subunit beta isoform (Homo sapiens, UniProt P42338); test: Inhibition of PI3K-beta (unknown origin) by KinaseGlo assay
[4] = target: Phosphatidylinositol 4,5-bisphosphate 3-kinase catalytic subunit gamma isoform (Homo sapiens, UniProt P48736); test: Inhibition of PI3K-gamma (unknown origin) by KinaseGlo assay
[5] = target: T3, Phosphatidylinositol 4,5-bisphosphate 3-kinase catalytic subunit delta isoform (Homo sapiens, UniProt O00329); test: Inhibition of PI3K-delta (unknown origin) by KinaseGlo assay
T3 sequence (O00329 whole entry): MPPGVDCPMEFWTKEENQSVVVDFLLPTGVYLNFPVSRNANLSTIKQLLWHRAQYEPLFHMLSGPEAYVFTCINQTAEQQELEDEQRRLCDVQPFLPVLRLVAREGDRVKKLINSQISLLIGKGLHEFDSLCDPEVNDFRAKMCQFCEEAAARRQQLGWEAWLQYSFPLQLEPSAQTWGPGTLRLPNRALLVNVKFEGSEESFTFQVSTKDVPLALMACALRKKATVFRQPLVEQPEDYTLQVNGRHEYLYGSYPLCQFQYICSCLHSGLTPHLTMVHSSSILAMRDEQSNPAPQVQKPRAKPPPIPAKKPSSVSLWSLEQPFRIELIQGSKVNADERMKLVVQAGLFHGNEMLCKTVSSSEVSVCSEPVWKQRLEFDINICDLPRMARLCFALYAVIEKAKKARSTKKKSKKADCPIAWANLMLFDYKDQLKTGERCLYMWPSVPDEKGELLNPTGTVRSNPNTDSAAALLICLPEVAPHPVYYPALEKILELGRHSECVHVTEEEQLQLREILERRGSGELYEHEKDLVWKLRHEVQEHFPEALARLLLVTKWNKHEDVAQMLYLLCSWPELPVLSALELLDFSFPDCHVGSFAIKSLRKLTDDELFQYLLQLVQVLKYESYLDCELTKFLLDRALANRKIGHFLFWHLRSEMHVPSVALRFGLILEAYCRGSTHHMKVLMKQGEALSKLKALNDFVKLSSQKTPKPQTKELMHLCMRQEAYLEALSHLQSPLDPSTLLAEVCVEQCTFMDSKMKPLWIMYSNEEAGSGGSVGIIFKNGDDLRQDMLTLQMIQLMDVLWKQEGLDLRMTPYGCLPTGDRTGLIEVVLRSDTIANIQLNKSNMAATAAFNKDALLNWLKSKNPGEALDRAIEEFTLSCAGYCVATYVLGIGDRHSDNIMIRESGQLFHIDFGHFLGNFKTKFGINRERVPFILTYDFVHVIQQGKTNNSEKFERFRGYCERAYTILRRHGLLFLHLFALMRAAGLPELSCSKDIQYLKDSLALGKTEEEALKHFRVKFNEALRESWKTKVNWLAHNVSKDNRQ

[6] = Lipophilicity, log P of the compound by high-throughput assay; assay type: physicochemical; settings: octanol/water
[7] = target: T4, Phosphatidylinositol 4,5-bisphosphate 3-kinase catalytic subunit delta isoform (Homo sapiens) (UniProt O00329); test: Selectivity ratio of IC50 for myristoylated PI3K-delta (unknown origin) overexpressed in Rat1 cells to IC50 for PI3K-delta (unknown origin); assay type: cell-based
T4 sequence (whole entry): T3 sequence (O00329 whole entry)

[8] = target: T5, Phosphatidylinositol 4,5-bisphosphate 3-kinase catalytic subunit delta isoform (Mus musculus, UniProt O35904); test: Inhibition of PI3K-delta in mouse splenocytes assessed as inhibition anti-IgM induced CD86 expression; assay type: cell-based
T5 sequence (O35904 whole entry): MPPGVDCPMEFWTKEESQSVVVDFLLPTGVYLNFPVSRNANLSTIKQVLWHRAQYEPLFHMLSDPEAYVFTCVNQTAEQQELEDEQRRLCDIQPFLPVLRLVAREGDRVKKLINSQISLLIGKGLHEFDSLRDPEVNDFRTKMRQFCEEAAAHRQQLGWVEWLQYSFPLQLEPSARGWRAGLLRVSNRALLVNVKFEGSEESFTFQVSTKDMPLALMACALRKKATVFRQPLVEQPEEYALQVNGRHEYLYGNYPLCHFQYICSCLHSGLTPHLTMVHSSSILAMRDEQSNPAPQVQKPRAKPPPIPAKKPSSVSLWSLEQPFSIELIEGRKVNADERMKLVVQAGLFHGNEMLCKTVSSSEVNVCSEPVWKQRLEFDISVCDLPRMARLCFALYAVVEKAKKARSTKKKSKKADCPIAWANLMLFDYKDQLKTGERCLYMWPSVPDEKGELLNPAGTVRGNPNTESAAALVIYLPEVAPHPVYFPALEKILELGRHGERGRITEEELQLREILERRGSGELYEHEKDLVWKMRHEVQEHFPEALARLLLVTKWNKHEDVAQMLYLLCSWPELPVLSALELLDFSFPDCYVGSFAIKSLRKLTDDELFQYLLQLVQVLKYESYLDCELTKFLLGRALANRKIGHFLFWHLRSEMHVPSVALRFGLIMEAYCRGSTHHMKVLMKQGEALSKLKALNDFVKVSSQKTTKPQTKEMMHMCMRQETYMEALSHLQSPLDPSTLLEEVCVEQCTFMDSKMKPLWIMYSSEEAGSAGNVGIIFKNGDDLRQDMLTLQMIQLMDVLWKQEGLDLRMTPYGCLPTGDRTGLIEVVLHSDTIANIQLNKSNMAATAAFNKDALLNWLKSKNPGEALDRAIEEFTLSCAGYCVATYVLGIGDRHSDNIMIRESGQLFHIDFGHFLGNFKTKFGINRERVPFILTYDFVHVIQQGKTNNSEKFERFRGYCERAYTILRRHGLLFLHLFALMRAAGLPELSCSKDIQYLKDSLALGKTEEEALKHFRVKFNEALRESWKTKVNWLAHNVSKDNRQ

Rat1 = test: Selectivity ratio of IC50 for PI3K-delta in rat whole blood to IC50 for myristoylated PI3K-delta (unknown origin) overexpressed in Rat1 cells; assay type: cell-based
[9] = target: T3, Phosphatidylinositol 4,5-bisphosphate 3-kinase catalytic subunit delta isoform; test: Inhibition of myristoylated PI3K-delta (unknown origin) overexpressed in Rat1 cells assessed as inhibition of Akt phosphorylation; assay type: cell-based
[10] = target: T1, Phosphatidylinositol 4,5-bisphosphate 3-kinase catalytic subunit alpha isoform; test: Inhibition of myristoylated PI3K-alpha (unknown origin) overexpressed in Rat1 cells assessed as inhibition of Akt phosphorylation; assay type: cell-based
[11] = Inhibition of PI3K-delta in rat whole blood assessed as inhibition of anti-IgM/IL4 induced CD86 expression; assay type: tissue-based
[12] = target: T2, Phosphatidylinositol 4,5-bisphosphate 3-kinase catalytic subunit beta isoform; test: Inhibition of myristoylated PI3K-beta (unknown origin) overexpressed in Rat1 cells assessed as inhibition of Akt phosphorylation; assay type: cell-based

T2 sequence (P42338 whole entry, canonical isoform): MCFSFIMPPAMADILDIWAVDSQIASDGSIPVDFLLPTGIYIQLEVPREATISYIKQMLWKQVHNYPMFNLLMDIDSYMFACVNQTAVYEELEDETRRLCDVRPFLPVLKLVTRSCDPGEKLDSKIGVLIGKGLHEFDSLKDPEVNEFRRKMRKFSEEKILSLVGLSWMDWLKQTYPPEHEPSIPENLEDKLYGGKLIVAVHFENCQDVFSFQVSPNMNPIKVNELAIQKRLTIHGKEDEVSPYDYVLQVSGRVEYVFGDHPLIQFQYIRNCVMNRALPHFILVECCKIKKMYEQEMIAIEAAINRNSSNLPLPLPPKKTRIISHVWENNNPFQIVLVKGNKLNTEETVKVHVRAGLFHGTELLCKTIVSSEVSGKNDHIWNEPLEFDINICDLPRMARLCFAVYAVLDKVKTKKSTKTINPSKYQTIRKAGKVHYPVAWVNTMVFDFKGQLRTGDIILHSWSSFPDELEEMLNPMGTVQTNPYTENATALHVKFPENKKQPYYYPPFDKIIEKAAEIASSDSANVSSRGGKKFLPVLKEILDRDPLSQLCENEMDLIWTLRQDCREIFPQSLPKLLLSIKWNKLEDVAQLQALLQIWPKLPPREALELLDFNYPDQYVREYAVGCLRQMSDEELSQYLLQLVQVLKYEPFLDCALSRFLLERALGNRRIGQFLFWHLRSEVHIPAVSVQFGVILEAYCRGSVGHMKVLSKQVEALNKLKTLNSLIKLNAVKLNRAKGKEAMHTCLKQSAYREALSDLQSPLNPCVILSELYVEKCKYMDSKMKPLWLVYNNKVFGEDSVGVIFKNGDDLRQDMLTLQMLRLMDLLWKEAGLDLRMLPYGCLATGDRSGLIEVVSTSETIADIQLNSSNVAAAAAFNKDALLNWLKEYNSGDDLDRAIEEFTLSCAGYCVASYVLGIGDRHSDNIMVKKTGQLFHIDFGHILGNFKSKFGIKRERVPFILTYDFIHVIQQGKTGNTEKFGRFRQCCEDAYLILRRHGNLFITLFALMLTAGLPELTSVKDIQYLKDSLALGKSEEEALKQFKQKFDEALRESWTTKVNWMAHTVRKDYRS
Sequence of Phosphatidylinositol 4,5-bisphosphate 3-kinase catalytic subunit gamma isoform (P48736 whole entry, canonical isoform): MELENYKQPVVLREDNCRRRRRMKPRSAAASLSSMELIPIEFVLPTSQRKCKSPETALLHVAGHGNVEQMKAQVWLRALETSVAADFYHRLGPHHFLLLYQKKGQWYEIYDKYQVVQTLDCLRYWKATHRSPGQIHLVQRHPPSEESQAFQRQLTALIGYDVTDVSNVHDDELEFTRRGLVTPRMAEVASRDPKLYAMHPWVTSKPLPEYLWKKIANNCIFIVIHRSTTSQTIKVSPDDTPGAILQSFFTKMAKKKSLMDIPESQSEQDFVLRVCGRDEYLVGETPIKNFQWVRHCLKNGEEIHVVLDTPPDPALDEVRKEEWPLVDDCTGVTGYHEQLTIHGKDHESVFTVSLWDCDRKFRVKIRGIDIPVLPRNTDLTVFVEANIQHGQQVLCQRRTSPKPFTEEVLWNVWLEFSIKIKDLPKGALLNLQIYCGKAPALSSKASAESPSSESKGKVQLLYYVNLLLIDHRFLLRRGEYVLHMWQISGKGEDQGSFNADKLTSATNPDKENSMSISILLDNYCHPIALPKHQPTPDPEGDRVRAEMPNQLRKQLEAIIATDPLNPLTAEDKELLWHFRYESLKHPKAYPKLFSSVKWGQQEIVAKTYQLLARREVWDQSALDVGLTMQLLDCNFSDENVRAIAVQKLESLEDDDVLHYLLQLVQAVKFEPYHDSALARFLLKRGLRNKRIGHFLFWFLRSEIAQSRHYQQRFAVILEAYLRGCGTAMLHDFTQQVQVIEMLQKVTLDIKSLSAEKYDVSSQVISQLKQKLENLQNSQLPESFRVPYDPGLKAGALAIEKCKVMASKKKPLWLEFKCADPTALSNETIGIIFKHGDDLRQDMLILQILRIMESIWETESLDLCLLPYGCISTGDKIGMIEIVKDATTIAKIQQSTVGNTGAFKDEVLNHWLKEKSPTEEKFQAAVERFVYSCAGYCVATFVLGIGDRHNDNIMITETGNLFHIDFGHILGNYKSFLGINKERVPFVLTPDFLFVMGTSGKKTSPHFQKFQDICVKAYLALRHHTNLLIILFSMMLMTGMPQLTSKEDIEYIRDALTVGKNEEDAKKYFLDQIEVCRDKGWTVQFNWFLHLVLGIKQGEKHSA
T1 sequence (P42336 whole entry, canonical isoform): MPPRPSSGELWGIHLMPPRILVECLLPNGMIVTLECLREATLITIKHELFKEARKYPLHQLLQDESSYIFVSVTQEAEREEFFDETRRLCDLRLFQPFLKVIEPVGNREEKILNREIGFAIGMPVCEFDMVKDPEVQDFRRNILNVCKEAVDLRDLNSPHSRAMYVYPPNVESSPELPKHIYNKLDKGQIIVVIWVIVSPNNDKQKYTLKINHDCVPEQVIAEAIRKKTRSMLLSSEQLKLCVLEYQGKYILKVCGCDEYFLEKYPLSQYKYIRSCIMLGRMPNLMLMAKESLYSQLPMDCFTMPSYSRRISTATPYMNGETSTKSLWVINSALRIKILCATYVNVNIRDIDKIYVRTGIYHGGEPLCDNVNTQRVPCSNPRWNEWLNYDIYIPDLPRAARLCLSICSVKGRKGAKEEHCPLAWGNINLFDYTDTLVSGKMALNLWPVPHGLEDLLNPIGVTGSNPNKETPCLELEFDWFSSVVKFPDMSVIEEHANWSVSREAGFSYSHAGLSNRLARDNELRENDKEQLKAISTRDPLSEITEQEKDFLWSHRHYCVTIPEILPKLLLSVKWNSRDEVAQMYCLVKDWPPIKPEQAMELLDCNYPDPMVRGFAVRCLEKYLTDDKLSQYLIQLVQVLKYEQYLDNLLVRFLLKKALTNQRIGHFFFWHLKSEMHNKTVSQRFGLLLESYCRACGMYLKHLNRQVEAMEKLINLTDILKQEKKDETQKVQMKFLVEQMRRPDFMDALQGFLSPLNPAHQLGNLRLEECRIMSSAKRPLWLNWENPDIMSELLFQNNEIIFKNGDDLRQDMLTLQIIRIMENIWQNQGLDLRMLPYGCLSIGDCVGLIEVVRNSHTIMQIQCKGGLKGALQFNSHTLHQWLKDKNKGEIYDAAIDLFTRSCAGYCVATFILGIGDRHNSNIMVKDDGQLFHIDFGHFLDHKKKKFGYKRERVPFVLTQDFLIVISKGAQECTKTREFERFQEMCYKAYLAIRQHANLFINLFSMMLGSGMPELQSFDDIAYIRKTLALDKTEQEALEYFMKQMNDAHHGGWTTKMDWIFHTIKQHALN

Compound	solubility thermodynamic [1]	IC50 [2]	IC50 [3]	IC50 [4]	IC50 [5]	logP [6]	Ratio IC50 [7]	IC50 [8]	IC50 [9]	IC50 [10]	IC50 [11]	IC50 [12]	Ratio IC50 (Rat1)
COc1ccc(-c2ccc3ncnc(-c4cccc(C(=O)N5CCN(C(C)=O)CC5)c4)c3c2)cc1OC	610 µM (≈ 303 µg/mL)												
COc1ccc(-c2ccc3ncnc(O[C@@H]4CCN(C(C)=O)C4)c3c2)cc1OC	> 1000 µM	0.676 µM	1.79 µM	1.23 µM	0.146 µM	2.4							
COc1ccc(-c2ccc3ncnc(O[C@H]4CCN(C(C)=O)C4)c3c2)cc1OC	> 1000 µM	0.126 µM	0.304 µM	0.194 µM	0.016 µM	2.6	5		0.082 µM	0.21 µM		0.407 µM	
CCC(=O)N1CC[C@H](Oc2ncnc3ccc(-c4cnc(OC)c(C#N)c4)cc23)C1	10 µM (≈ 4.03 µg/mL)	0.386 µM	0.36 µM	0.978 µM	0.005 µM	2.6	16		0.079 µM	1.38 µM		1.28 µM	
COc1ccc(-c2ccc3ncnc(O[C@H]4CCN(C)C4)c3c2)cc1OC	> 1000 µM	0.888 µM	1.48 µM	1.21 µM	0.13 µM	3.6							
COc1ccc(-c2ccc3ncnc(O[C@@H]4CCN(C(=O)OC(C)(C)C)C4)c3c2)cc1OC	6 µM (≈ 2.71 µg/mL)	0.693 µM	3.88 µM	0.642 µM	0.256 µM	4.9							
COc1ccc(-c2ccc3ncnc(O[C@H]4CCN(C(=O)OC(C)(C)C)C4)c3c2)cc1OC	9 µM (≈ 4.06 µg/mL)	0.148 µM	0.956 µM	0.282 µM	0.01 µM	5.3	4		0.044 µM	0.262 µM		1.52 µM	
COc1ccc(-c2ccc3ncnc(O[C@@H]4CCN(C)C4)c3c2)cc1OC	> 1000 µM	0.842 µM	1.94 µM	2.07 µM	0.11 µM	3.6							

The next lines start with results.

solubility thermodynamic [1]	IC50 [2]	IC50 [3]	IC50 [4]	IC50 [5]	logP [6]	Ratio IC50 [7]	IC50 [8]	IC50 [9]	IC50 [10]	IC50 [11]	IC50 [12]	Compound	Ratio IC50 (Rat1)
40 µM (≈ 16.3 µg/mL)	0.491 µM	0.86 µM	0.366 µM	0.015 µM	3.8	5	0.085 µM	0.072 µM	1.86 µM	0.282 µM	2.13 µM	CCC(=O)N1CC[C@@H](Oc2cnc3ccc(-c4ccc(OC)c(OC)c4)cc3n2)C1	4
80 µM (≈ 32.6 µg/mL)	3.23 µM	> 9.1 µM	3.78 µM	0.488 µM	3.7							CCC(=O)N1CC[C@H](Oc2cnc3ccc(-c4ccc(OC)c(OC)c4)cc3n2)C1	
> 1000 µM	0.218 µM	0.669 µM	0.698 µM	0.009 µM	2.8	3	0.082 µM	0.028 µM	1.03 µM	0.297 µM	1.78 µM	CCC(=O)N1CC[C@H](Oc2ncnc3ccc(-c4ccc(OC)nc4)cc23)C1	11
> 1000 µM	0.22 µM	0.655 µM	0.828 µM	0.011 µM	3.4	15	0.155 µM	0.162 µM	0.606 µM	0.377 µM	0.877 µM	CCC(=O)N1CC[C@H](Oc2ccnc3ccc(-c4ccc(OC)nc4)cc23)C1	2.3
> 1000 µM	0.424 µM	1.03 µM	2.94 µM	0.022 µM	2.2	29		0.646 µM	2.36 µM		3.21 µM	CCC(=O)N1CC[C@H](Oc2ccnc3ccc(-c4ccc(OC)nc4)nc23)C1	
370 µM (≈ 140 µg/mL)	5.08 µM	9.01 µM	> 9.1 µM	0.188 µM	2.8	13		2.84 µM	> 10 µM		> 10 µM	CCC(=O)N1CC[C@H](Oc2cnnc3ccc(-c4ccc(OC)nc4)cc23)C1	
